Reference: US11464785B2, “Treatment of addiction and impulse-control disorders using PDE7 inhibitors” (priority 2010, dated 2022)

Experiments:
[1] = test system: binge eating model; experiment: Stress-induced binge eating of highly palatable food (HPF); assay type: in vivo, female rats; conditions: topiramate 60 mg/kg i.p.
Excerpt: To mimic binge eating disorder in laboratory animals, a binge eating model was developed where binge eating is elicited by yo-yo dieting and stressful exposure to Highly Palatable Food (HPF). In this model, female rats are exposed to repeated cycles of restriction and a stressful procedure characterized by exposure of animals to HPF without the possibility of accessing it. This procedure elicits a selective increase of highly palatable food intake that is overconsumed during a very short period of time. As described below, using this model, endowed with significant predictive and face validity, the effect of PDE7 inhibitors on binge eating (one of the most significant forms of food addiction) was investigated.
Reinstatement of binge eating behavior has been obtained in experimental animals through a combination of repeated food restriction and stress. [Cifani et al, Psychopharmacology 204:113-125 (2009)]. For the present invention, stress-induced binge eating was tested as in Cifani.
Rats were housed in individual cages and were given chow and water ad libitum for two weeks prior to the experiment. […]
After one hour, animals were given HPF and ad libitum chow. Intake of HPF was measured after two hours.

[2] = test system: dopamine release in the nucleus accumbens; experiment: In vivo microdialysis of dopamine release in the nucleus accumbens; parameters: species or system Male Wistar rats; conditions: nicotine 0.4 mg/kg sc
Procedure: Male Wistar rats (Harlan, Italy) weighing 275-300 g were housed in groups of six per cage with standard food (Morini, Italy) and water ad libitum, for at least five days in the central animal room under constant temperature (23° C.), humidity (60%) and a 12 hour light/dark cycle (light from 8 a.m. to 8 p.m.).
Concentric dialysis probes with a dialysing portion of 1.5 mm were prepared with AN69 (acrylonitrile sodium methallyl sulfonate copolymer) dialysis fiber (310 μm o.d. 220 μm i.d. Hospal, Dasco, Italy), according to the method of De Luca et al. (2007). Rats were anaesthetized with chloral hydrate (400 mg/kg i.p.) and placed in a stereotaxic apparatus. The scalp was incised and the skull leveled between lambda and bregma. […] Samples from each of the NAc shell and core were taken every 10 or 20 minutes (depending on the experiments) and analyzed.
Dialysate samples (10 or 20 μl) were injected into an HPLC equipped with a reverse phase column (C8 3.5 um, Waters, Mildford, Mass., USA) and a coulometric detector (ESA, Coulochem II, Bedford, Mass.) to quantify DA. […]
NAc shell and core dialysate DA was monitored for at least three hours. […] Dialysate DA was monitored for at least three hours after nicotine treatment.

[3] = test system: dopaminergic VTA neurons; experiment: Whole-cell current clamp recordings from rat VTA horizontal slices; assay type: cell-based
Excerpt: The reinforcing effects of nicotine are believed to result from its activation of dopaminergic neurons in the ventral tegmental area (VTA) (Pidoplichko V I et al., Nature 390:401-404 (1997); Liu L, et al., Nicotine persistently activates ventral tegmental area dopaminergic neurons via nicotinic acetylcholine receptors containing α4 and α6 subunits. Mol Pharmacol, 81(4):541-8 (2012)). The inventors sought to evaluate the anti-addictive potential of PDE7 inhibitors by studying their ability to modify basal and drug of abuse-induced changes in VTA dopamine activity by performing whole-cell current clamp recordings from rat VTA horizontal slices ex vivo. For this purpose nicotine was used as an example of drugs of abuse.
Dopaminergic neurons were identified by the presence of a large hyperpolarizing current. Johnson, S. W., et al., “Opioids excite dopamine neurons by hyperpolarization of local interneurons,”J. Neurosci 12:483-488 (1992).
An additional electrophysiology study was completed to evaluate the effect of the PDE7 inhibitor OMS182399 on VTA DA neuronal activity in the setting of cocaine, morphine or alcohol. The preparation of VTA slices was as described above in Example 8.
Drug-induced changes in firing rate were calculated by averaging the effects after drug administration (five minutes) and normalizing to the pre-drug baseline. All the numerical data are given as mean±s.e.m. Data were compared and analyzed by utilizing two-way ANOVA for repeated measures (treatment×time), or Student's t-test for repeated measures, when appropriate. Statistical analysis was performed by means of the GraphPad Prism program. The significance level was established at P<0.05.
The acute effect of OMS182399 was investigated on dopamine neurons of the VTA in a rat horizontal brain slice preparation containing the midbrain. Whole-cell current-clamp recordings were performed from VTA dopamine neurons.

[4] = test system: rat model of cocaine addiction; conditions: in vivo
[5] = test system: open field activity; experiment: Open field activity model; assay type: in vivo, wild type C57BL/6 mice; conditions: C57BL/6 mice; SKF82958 1 mg/kg; FIG. 36
Procedure: In order to assess the ability of PDE7 inhibitors to enhance DRD1 signaling in vivo, the effects of the PDE7 inhibitor OMS182401 and the DRD1 agonist SKF82958, alone and in combination, were evaluated in an open field activity model using wild type C57BL/6 mice.

[6] = test system: rat model of cocaine addiction
[7] = test system: rat model of cocaine addiction; assay type: in vivo, rats
Procedure: PDE7 inhibitors and DRD1 agonists were next tested for their effect on cocaine priming-induced relapse. Rats were trained to self-administer cocaine, as above, and were then exposed to extinction conditions. Cocaine was replaced with saline solution. […] Rats were treated with vehicle or agent and ten minutes later were administered cocaine. Lever pressing was counted for one hour following cocaine administration. […] Once again, administration of PDE7 inhibitors and dopamine D1 agonist had very different results in cocaine addicted animals.

CC1(C)O[C@@H]2[C@@H](CO[C@@]3(COS(N)(=O)=O)OC(C)(C)O[C@@H]23)O1 [Topiramate]
times of observation at which HPF intake was reduced, R+S group, highest dose ([1]; OMS182056 3 mg/kg i.p., p<0.05): evident at all the times of observation | HPF intake, restricted and stressed (R+S) group ([1]; rats, two hours, OMS182401 3.0 mg/kg i.p., OMS182056 1.0 and 3.0 mg/kg i.p., FIGS. 23D, 24D, 25D): reduced HPF intake only in the R+S group

CN1CCC[C@H]1c1cccnc1 [nicotine]
DA release in the NAc shell [2]: increases DA release in the NAc shell

CCO [Ethanol]
firing rate of VTA DA cells ([3]; Ethanol 100 mM, 5 min, n=6): 158.3±26.7 % of basal firing rate

COC(=O)[C@H]1[C@@H](OC(=O)c2ccccc2)C[C@@H]2CC[C@H]1N2C [cocaine]
firing rate of VTA DA cells ([3]; cocaine 1 μM, 5 min, n=7): 36.4±9.1 % of basal firing rate

CN1CC[C@]23c4c5ccc(O)c4O[C@H]2[C@@H](O)C=C[C@H]3[C@H]1C5 [morphine]
firing rate of VTA DA cells ([3]; morphine, 3 min, n=7): 224.4±19.5 % of basal firing rate

Br.C=CCN1CCc2c(cc(O)c(O)c2Cl)C(c2ccccc2)C1 (racemic) [SKF82958, (±)-6-Chloro-7,8-dihydroxy-3-allyl-1-phenyl-2,3,4,5-tetrahydro-1H-3-benzazepine hydrobromide]
nicotine-induced activation of VTA neurons, single agents at low concentration ([3]; 30 nM OMS182401 alone or 1 uM SKF82958 alone): ineffective | spontaneous firing rate of dopaminergic VTA neurons ([3]; OMS182401, SKF82958 at 3.0 and 10.0 uM, FIG. 29A): a similar effect was observed | lever pressing when administered on its own (addictive properties) [4]: Neither agent caused increased lever pressing | open-field activity, single agents [5]: stimulated open-field activity at 1 mg/kg | behavior of animals given the agent with cocaine ([6]; rat, in vivo, ip): exhibited significantly abnormal behavior and were extremely aggressive | cocaine self-administration, short-access model ([6]; rats, 2-hour sessions, OMS182401 15 minutes before session (FIG. 3), SKF82958 1.0 mg/kg i.p. (FIG. 4)): significantly reduced cocaine self-administration in the short-access model | cocaine self-administration, first hour after treatment ([6]; rats, short-access, i.p.): a significant reduction in self-administration was observed at both doses | cocaine self-administration, two hours after treatment ([6]; rats, short-access, i.p.): the trend of self-administration reduction was non-significant | behavior of treated animals in cocaine priming test ([7]; rat, in vivo): exhibited significantly abnormal behavior | cocaine priming-induced lever pressing ([7]; rats, agent ten minutes before cocaine, lever pressing for one hour, FIGS. 13 and 14): significantly reduced lever pressing induced by cocaine priming
